Patent US9943599B2, “Therapeutic applications of calcium electroporation to effectively induce tumor necrosis” (Herlev Hospital, priority 2011, dated 2018)

Key:
[1] = tested on: DC-3F, K-562 and Lewis Lung Carcinoma cells; assay: In vitro electroporation, MTT viability assay; assay type: cell-based, Chinese hamster, human, murine; settings: electroporated; data not shown
Experimental: Three cell lines are used for in vitro experiments, DC-3F, a transformed Chinese hamster lung fibroblast cell line; K-562, a human leukemia cell line; and Lewis Lung Carcinoma, a murine lung carcinoma cell line. DC-3F cells were tested for mycoplasma in January 2011, K-562 cells were tested for mycoplasma in 2008 prior to freezing and thawing just before experiments were performed, and Lewis Lung cells were tested by rapid MAP27 panel (Taconic, Hudson N.Y.) in July 2011 without signs of infection. Cells are maintained in RPMI 1640 culture medium (GIBCO™, Life Technologies, Carlsbad, Calif.) with 10% fetal calf serum (GIBCO™, Life Technologies, Carlsbad, Calif.), penicillin and streptomycin at 37° C. and 5% C02. After harvesting, cells are washed and diluted in HEPES buffer containing 10 mM HEPES (Lonza, Basel, Switzerland), 250 mM sucrose and 1 mM MgCl2 in sterile water. 270 μl cell suspension (6.1×10^6 cells/ml) and 30 μl CaCl2, or in the case of controls, HEPES buffer, are electroporated in 4 mm wide cuvettes with aluminium electrodes (Molecular BioProducts, Inc., San Diego, Calif.). Cooled cells (8° C.) are exposed to 8 pulses of 1.2 kV/cm with pulse duration of 99 μs (DC-3F and K562 cells) or 8 pulses of 1.4 kV/cm with pulse duration of 99 μs (Lewis Lung Carcinoma) using a BTX® T820 square wave electroporator (BTX®, Harvard Apparatus, Holliston, Mass.). The electroporation parameters are chosen after optimization to obtain high permabilisation and cell survival. After 20 min at 37° C. and 5% CO2 cells are diluted in RPMI 1640 culture medium with 10% fetal calf serum and penicillin-streptomycin and seeded in 96-well plates at a concentration of 3.1×10^4 cells/100 μl.
Difference between electroporated and non-electroporated cells in identical buffer is assessed using two-way analysis of variance (ANOVA) with post least-squares-means test with Bonferroni correction for multiple comparisons.

[2] = tested on: DC-3F cells; assay: Calcium electroporation with two calcium sources, MTT assay; assay type: cell-based, Chinese hamster; settings: 1 mM, 8 pulses, 0-1.6 kV/cm; MTT 1 day after treatment
Experimental: DC-3F cells were electroporated as described in example 1 with 1 mM calcium chloride (prepared by SAD, Denmark) or 1 mM calcium glubionate (Sandoz, Holzkirchen, Germany). The calcium concentration was chosen based on the experiment described in example 1 where 1 mM calcium is the lowest concentration inducing high cell death. The cells were electroporated with 8 pulses of […] at 1 Hz and increasing electric field (0-1.6 kV/cm). After 20 min at 37° C. and 5% CO2 cells were diluted in RPMI 1640 culture medium with 10% fetal calf serum and penicillin-streptomycin and seeded in 96-well plates at a concentration of 3.1×10^4 cells/100 μl.

## bleomycin
[1]
  concentration giving a decrease in viability similar to calcium electroporation: ≥ 0.1 µM

## O.O=C([O-])[C@H](O)[C@@H](O)[C@H](O)[C@H](O)CO.O=C([O-])[C@H](O)[C@@H](O)[C@H](O[C@@H]1O[C@H](CO)[C@H](O)[C@H](O)[C@H]1O)[C@H](O)CO.[Ca+2] [calcium glubionate]
[2]
  effect of calcium electroporation on cell viability, calcium chloride versus calcium glubionate: no difference
